Data: a melting point compilation (Tetko et al.; mined from patent text by program, amines drawn as free bases though some values may be those of a salt)

Row | melting point [°C] | SMILES
1 | 181 to 182 | CC(C)N(CC1CCCCN1CCNC(=O)N1c2ccccc2C(=O)Nc2cccnc21)C(C)C (centres undefined)
2 | 170 to 173 | CC(=O)N1Cc2c(n(-c3cccc(Cl)c3)c3ncccc3c2=O)C1
3 | 180 to 185 | CCN1C(=O)C(C(=O)Nc2cccc(S(C)=O)c2)c2cc3c(cc21)CCO3 (centres undefined)
4 | > 270 | CCn1c(=O)c2[nH]c(/C=C/c3ccccc3F)nc2n(CC)c1=O
5 | 123 to 125 | Cc1cc2c(nc1C(O)c1cccc(Cl)c1)CCCCC2 (centres undefined)
6 | 125 | COc1ccc(CCNC(=O)Cc2ccc(OC)c(OC)c2)cc1OC
7 | 129 to 130 | CC(=O)N(c1ccc(C(F)(F)F)cc1)c1nccc(-c2cccc(Cl)c2)n1
8 | 130 to 131 | N=C(Nc1ccc(CCNCc2cccc(F)c2)cc1)c1cccs1
9 | 200 to 201 | CC(C)(C)OC(=O)N1CCC2(CC1)C(=O)N(CC(=O)O)CN2c1ccccc1
10 | 108 | CCOC(=O)c1ccc(C#CC(O)c2cccc3c2C(C)(C)CCS3)cc1 (centres undefined)
11 | 216 | O=C1OC(c2ccccc2)C2CCc3cc(O)ccc3N12 (centres undefined)
12 | 132 to 133 | Cn1c(CC#N)ccc1C(=O)c1cccs1
13 | 213 | CC1(C)CCC(C)(C)c2cc(CCCO)c(/C=C/c3ccc(C(=O)O)cc3)cc21
14 | 230 to 232 | COc1ccc(O)c(C(=O)Nc2cc(Cl)cc(Cl)c2)c1
15 | > 250 | CCc1ccc(Nc2nc3cc(NC(=O)c4ccc(Cl)cc4)ccc3o2)cc1
16 | 149 to 151 | O=c1nc(-c2ccccc2)c2cc(Cl)sc2n1CC1CC1
17 | 182 to 183 | CC1(C)OC(=O)Nc2ccc(-c3cc(F)cc(Br)c3)cc21
18 | 132 | CCOc1ccc2c(c1)n(CCN(C(C)C)C(C)C)c(=O)n2S(=O)(=O)c1ccc(OC)cc1OC
19 | 249 | COc1cc(C(=O)c2ncc3ccc(NS(C)(=O)=O)cn23)ccc1[N+](=O)[O-]
20 | 324 to 327 | O=C1NC(=O)c2c1cc1ccc3c(c1c2-c1ccc(Br)cc1)OCO3
21 | 138 to 141 | CCNC1(c2ccccc2Cl)C(=O)N(Cc2ccc(C(=O)NC(C)(CO)CO)cc2)c2ccc(Cl)cc21 (centres undefined)
22 | 175 to 177 | Cc1nc(-n2ccc(COc3ccccc3)cc2=O)sc1C(=O)NCc1ccccc1
23 | 160 to 162 | CC(=O)C1CCC2C3CCC4CC(O)C(N5CCOC(Cc6ccccc6)C5)CC4(C)C3C(=O)CC12C (centres undefined)
24 | 142 to 146 | COc1cc(OC)cc(-c2ncoc2-c2ccc(N)cc2)c1
25 | 150 to 151 | Cc1cc2c(s1)SCCc1cc(=O)n(-c3ccc(Cl)cc3)nc1-2
26 | 161 to 165 | COc1cc(C)nc(NC(=O)NS(=O)(=O)c2ccccc2CCSC#N)n1

Further lines, the compound ahead of its results:

Row | SMILES | melting point [°C]
27 | CC(C)(C)CCN1C(=O)C(NC(=O)Oc2ccccc2)C(=O)N(c2ccccc2)c2ccccc21 (centres undefined) | 170 to 172
28 | Nc1ccc2ccc(N3CCCC3)nc2n1 | 251
29 | CCOC(CCNC(=O)CCC(=O)NCCC(OCC)OCC)OCC | 89 to 90
30 | OCc1ccc2c(Cl)cccc2c1 | 72 to 75
31 | O=C(O)/C=C/c1ccc(-c2nc3c(=O)n(CCC4=CCCCC4)c(=O)n(CCC4=CCCCC4)c3[nH]2)cc1 | > 250
32 | CCOC(=O)C1(C(=O)OCC)Cc2ccc(OC)c(Cl)c2O1 | 97 to 99
33 | OCCCc1cn(-c2ccc(C(F)(F)F)cn2)nc1OCc1ccccc1 | 79 to 81
34 | COc1ccc(C=Cc2ccc(OC)c(OC)c2)cc1 | 131 to 134
35 | O=C(CBr)c1ccc2nnnn2c1 | 108 to 110
36 | CCCCC(CC)(CO)C(=O)O (centres undefined) | 45 to 46
37 | CCC(O)(c1ccc(OCCCN2CCC(C)CC2)cc1)c1ccccc1OC (centres undefined) | 82 to 83
38 | Cc1cc(=O)n2cccc(OCc3ccccc3)c2n1 | 110 to 112
39 | Cc1nc(-c2ccc(S(C)(=O)=O)cc2)c(-c2ccc(F)cc2)s1 | 134 to 135
40 | O=S1(=O)c2cccc3cccc(c23)N1CCCN1CCN(c2ccccn2)CC1 | 101
41 | COC(=O)c1cc2ncnn2nc1NCCCN1CCC(OC(c2ccccc2)c2ccccc2)CC1 | 120 to 122
42 | O=C(OCc1nc(/C=C/c2cn(-c3ccccc3)nc2O)cs1)c1ccccc1 | 215 to 216
43 | Cc1ccc2nc(CO)cc(Cl)c2c1 | 147 to 148
44 | O=[N+]([O-])c1ccc(Cl)cc1NN1CCOCC1 | 155
45 | CCCCCCCCCCCCCCCCCCNC(=O)Nc1ccc(O)cc1 | 144
46 | CN1CC(Cn2cccn2)CC2c3cccc4[nH]cc(c34)CC21 (centres undefined) | 192 to 194
47 | CCCS(=O)(=O)Cc1cc2oc(S(N)(=O)=O)cc2cn1 | 167 to 169
48 | CCOCc1cc(I)c(=O)[nH]c1C | 220 to 222
49 | CC(C)[C@H](C[C@H](N=[N+]=[N-])[C@@H]1C[C@@H](C(C)C)C(=O)O1)C(=O)O | 56 to 58
50 | CCSc1cc(O)nc(N(C)C)n1 | 184 to 185

Row | SMILES | melting point [°C]
51 | Cc1ccc(-c2cc[nH]c2CC[N+](=O)[O-])cc1 | 81 to 82
52 | Oc1ccccc1C1OCCO1 | 67 to 70
53 | COc1cc(CO)c(OC)c(C)c1C | 71 to 72
54 | O=C(Nc1nnn(CC(F)(F)F)n1)C(c1ccccc1)c1ccccc1 | 146 to 148
55 | CCNc1ccc2ccccc2c1-c1c(P(c2ccccc2)c2ccccc2)ccc2ccccc12 | 83.1
56 | CC(C)(C)c1ccc(O[C@@H]2CCC[C@H]2O)c(C(C)(C)C)c1 (relative stereo) | 112
57 | CC(C)(C)c1cc(C=C(C#N)C#N)cc(Cl)c1O | 173
58 | CN1CCCC2C(=NO)CCCC21 (centres undefined) | 169 to 171
59 | O=c1[nH]c2c(Cl)cccc2s1 | 203 to 204
60 | O=C(NCc1cccnc1)c1cc2ccnc(Cl)c2[nH]1 | 189 to 191
61 | O=C1CCC(c2ccccc2)(c2ccccc2)[C@@H]2CN(C(=O)Cc3ccccc3N3CCOCC3)C[C@H]12 (racemic) | 167
62 | ClCCN1CCC(=C(c2ccccc2)c2ccccc2)CC1 | 85 to 86
63 | O=C1NC(=O)C(S(=O)(=O)c2ccc(F)cc2)S1 (centres undefined) | 190 to 196
64 | O=[N+]([O-])CS(=O)(=O)c1ccc2c(c1)OCO2 | 131 to 132
65 | COc1ccc(C2=NN(C3CCCC3)C(=O)[C@H]3CC=CC[C@@H]23)cc1Cl (relative stereo) | 201 to 202
66 | CNC(=S)NCCCSc1nc(C)co1 | 73 to 74
67 | O=C(NC[C@H]1CN(c2cc(F)c(N3CCC(n4ncnn4)CC3)c(F)c2)C(=O)O1)C(Cl)Cl | 160 to 162
68 | CC(C)(C)OC(=O)c1ncn2c1C1CCCN1C(=O)c1cnccc1-2 (centres undefined) | 217 to 218
69 | CC(c1oc2ccccc2c(=O)c1-c1cccc(F)c1)n1nc(-c2csc3ccccc23)c2c(N)ncnc21 (centres undefined) | 226 to 229
70 | N[C@@H](Cc1ccccc1)C(=O)N(CC1CC(Cl)=NO1)C(=O)OCc1ccccc1 (some centres undefined) | 141 to 148
71 | Brc1ccc2c3c(cccc13)C(NCCCCCn1ccnc1)=N2 | 138 to 140
72 | C=C(c1ccccc1OC(C)c1ccccc1)n1ccnc1 (centres undefined) | 172 to 174
73 | Cc1ccccc1-c1nc2ccccc2n1Cc1c(F)cccc1F | 139
74 | CC(C)(C)c1cc(CO)n(Cc2ccc(C(F)(F)F)cc2Cl)n1 | 115 to 117
